# ChEMBL document CHEMBL4825696, “Development of photocontrolled BRD4 PROTACs for tongue squamous cell carcinoma (TSCC)” (Eur J Med Chem, 2021)
# pIC50: −log10 of the molar value. Activity calls are given as the source filed them. The calls are words filed in the database; no cut-off is given here.
# Legend:
# [1] = Induction of apoptosis in human HN-6 cells assessed as viable cells at 5 uM measured after 1 hr by AnnexinV-FITC/propidium iodide staining based flow cytometry analysis (reference value: 93.62%); type: functional; details: read-out: Activity
# [2] = system: HN-6; assay: Antitumour activity against human HN-6 cells xenografted in zebrafish embryo assessed as inhibition of tumour growth at 50 uM measured after 72 hrs by microscopic method; type: functional
# [3] = biological target: T1, Protein cereblon/Bromodomain-containing protein 4 (Homo sapiens) (UniProt O60885+Q96SW2); assay: PROTAC activity at CRBN/BRD4 in human HEK293T cells assessed as BRD4 degradation by measuring downregulation of c-Myc level by western blot analysis; type: cell-based
# [4] = Induction of apoptosis in human HN-6 cells assessed as early apoptotic cells at 5 uM measured after 1 hr by AnnexinV-FITC/propidium iodide staining based flow cytometry analysis (Rvb =1.54%); type: functional
# [5] = biological target: T1, Protein cereblon/Bromodomain-containing protein 4 (Homo sapiens); assay: PROTAC activity at CBRN/BRD4 in human HEK293T cells assessed as degradation of BRD4 measured after 30 mins by Fluorescence polarization competitive binding assay; type: cell-based
# [6] = Induction of apoptosis in human HN-6 cells assessed as necrotic cells at 5 uM measured after 1 hr by AnnexinV-FITC/propidium iodide staining based flow cytometry analysis (reference value: 3.37%); type: functional
# [7] = Induction of apoptosis in human HN-6 cells assessed as late apoptotic cells at 5 uM measured after 1 hr by AnnexinV-FITC/propidium iodide staining based flow cytometry analysis (reference value: 1.46%); type: functional
# [8] = system: HN-6; assay: Antitumor activity against human HN-6 cells xenografted in nude mouse assessed as tumor growth inhibition at 50 mg/kg, ip administered every day for 2 weeks and measured every 2 days; type: functional, organism-based
# [9] = biological target: T1, Protein cereblon/Bromodomain-containing protein 4 (Homo sapiens); assay: PROTAC activity at CRBN/BRD4 in human HEK293T cells assessed as BRD4 degradation by measuring downregulation of BRD4 level at 0.1 to 10 uM by western blot analysis; type: cell-based; details: dose 0.1-10 µM
# [10] = (§1) Antiproliferative activity against human HN-6 cells assessed as reduction in cell viability incubated for 24 hrs by CCK-8 assay; type: functional, cell-based; details: HN-6, 24 h
# [11] = system: HN-6; assay: Antiproliferative activity against human HN-6 cells assessed as reduction in cell viability irradiated with 365 nm UVA light for 15 mins followed by incubation with compound for 24 hrs by CCK-8 assay; type: functional, cell-based
# [12] = Induction of apoptosis in human HN-6 cells assessed as necrotic cells at 5 uM irradiated with 365 nm UVA light for 15 mins followed by incubation with compound for 24 hrs by AnnexinV-FITC/propidium iodide staining based flow cytometry analysis (reference value: 2.7%); type: functional
# [13] = biological target: T1, Protein cereblon/Bromodomain-containing protein 4 (Homo sapiens); assay: PhotoPROTAC activity at CRBN/BRD4 in human HEK293T cells assessed as BRD4 degradation by measuring downregulation of BRD4 level at 3 uM pretreated for 1 hr followed by irradiation with 365 nm UVA light for 15 mins and measured after 24 hrs by Western blot analysis; type: cell-based; details: time 1515.0 min
# [14] = (§2) Photolysis of compound in acetonitrile assessed as 2-((S)-4-(4-chlorophenyl)-2,3,9-trimethyl-6H-thieno[3,2-f][1,2,4]triazolo[4,3a][1,4]diazepin-6-yl)-N-(4-(2-((2-(2,6-dioxopiperidin-3-yl)-1,3-dioxoisoindolin-4-yl)oxy)acetamido)butyl)acetamide formation at 40 uM incubated for 60 mins under 365 nm UVA irradiation by UV-Vis spectral analysis; type: functional
# [15] = as §2, with “DMSO-d6” for “acetonitrile”, “10 mM” for “40 uM”, “1H-NMR” for “UV-Vis spectral”; type: functional
# [16] = biological target: T1, Protein cereblon/Bromodomain-containing protein 4 (Homo sapiens); assay: PhotoPROTAC activity at CBRN/BRD4 in human HEK293T cells assessed as degradation of BRD4 irradiated with 365 nm UVA light for 15 mins followed by incubation with compound for 30 mins by Fluorescence polarization competitive binding assay; type: cell-based
# [17] = biological target: T1, Protein cereblon/Bromodomain-containing protein 4 (Homo sapiens); assay: PhotoPROTAC activity at CRBN/BRD4 in human HEK293T cells assessed as BRD4 degradation by measuring downregulation of c-Myc level pretreated for 1 hr followed by irradiation with 365 nm UVA light for 15 mins and measured after 24 hrs by Western blot analysis; type: cell-based; details: time 1515.0 min
# [18] = Induction of apoptosis in human HN-6 cells assessed as early apoptotic cells at 5 uM irradiated with 365 nm UVA light for 15 mins followed by incubation with compound for 24 hrs by AnnexinV-FITC/propidium iodide staining based flow cytometry analysis (reference value: 5.3%); type: functional
# [19] = Induction of apoptosis in human HN-6 cells assessed as late apoptotic cells at 5 uM irradiated with 365 nm UVA light for 15 mins followed by incubation with compound for 24 hrs by AnnexinV-FITC/propidium iodide staining based flow cytometry analysis (Rvb =1.69%); type: functional
# [20] = as §2, with “HPLC” for “UV-Vis spectral”; type: functional
# [21] = Induction of apoptosis in human HN-6 cells assessed as viable cells at 5 uM irradiated with 365 nm UVA light for 15 mins followed by incubation with compound for 24 hrs by AnnexinV-FITC/propidium iodide staining based flow cytometry analysis (reference value: 90.31%); type: functional; details: HN-6, light or radiation study, read-out: Activity
# [22] = system: HN-6; assay: Antitumour activity against human HN-6 cells xenografted in zebrafish embryo assessed as inhibition of tumour growth at 50 uM irradiated with 365 nm UVA light for 20 mins and measured after 3 days by microscopic method; type: functional; details: time 3.0 day
# [23] = system: HN-6; assay: as §1; type: functional, cell-based
# [24] = Photolysis of compound in acetonitrile assessed as 2-(2,6-dioxo-3-piperidyl)isoindoline-1,3-dione formation at 40 uM incubated for 40 mins under 365 nm UVA irradiation by HPLC analysis; type: functional
# [25] = Photolysis of compound in acetonitrile assessed as 2-(2,6-dioxo-3-piperidyl)isoindoline-1,3-dione formation at 40 uM incubated for 40 mins under 365 nm UVA irradiation by UV-Vis spectral analysis; type: functional
structure (smiles),measurement,setting,value
Cc1sc2c(c1C)C(c1ccc(Cl)cc1)=N[C@@H](CC(=O)NCCCCNC(=O)COc1cccc3c1C(=O)N(C1CCC(=O)NC1=O)C3=O)c1nnc(C)n1-2 (stereo not given in full),viability at 5 µM,[1],51.1%
same,Activity,[2],Active
same,Activity,[3],Active
same,Activity,[4],33.75%
same,Activity,[5],Dose-Dependent Effect
same,Activity,[6],3%
same,Activity,[7],12.17%
same,Activity,[8],Active
same,Activity,[9],Active
same,pIC50,[10],5.15
COc1cc(CN2C(=O)CCC(N3C(=O)c4cccc(OCC(=O)NCCCCNC(=O)C[C@@H]5N=C(c6ccc(Cl)cc6)c6c(sc(C)c6C)-n6c(C)nnc65)c4C3=O)C2=O)c([N+](=O)[O-])cc1OC (stereo not given in full),Activity,[11],Active
same,Activity,[12],4.24%
same,Activity,[13],Active
same,viability at 5 µM,[1],82.5%
same,Drug metabolism,[14],Metabolite detected
same,Activity,[2],inactive
same,Drug metabolism,[15],Metabolite detected
same,Activity,[4],10.85%
same,Activity,[16],Dose-Dependent Effect
same,Activity,[6],2.55%
same,Activity,[7],4.05%
same,Activity,[17],Active
same,Activity,[18],19.29%
same,Activity,[19],8.35%
same,Drug metabolism,[20],Metabolite detected
same,viability at 5 µM,[21],68.1%
same,Activity,[22],Active
same,Activity,[23],inactive
COc1cc(CN2C(=O)CCC(N3C(=O)c4ccccc4C3=O)C2=O)c([N+](=O)[O-])cc1OC (stereo not given),Drug metabolism,[24],Metabolite detected
same,Drug metabolism,[25],Metabolite detected
